The values that follow come from patent publication US20250324969A1.

The test system of one assay is Anopheles gambiae. As to conditions: J. Med. Entomol. 41 (4) (2004); cited from earlier work.
For another assay, the system named is Aedes aegypti. As to conditions: J. Med. Entomol. 41 (4) (2004); cited from earlier work.
In a further assay the test system is Culex quinquefasciatus. Particulars: J. Med. Entomol. 41 (4) (2004); cited from earlier work.
The test system of assay [1] is VKPR mosquito strain (also called VKPER) of Anopheles gambiae. Particulars: VKPR strain with mutation for knockdown resistance to pyrethroids; cited from earlier work.
The test system of assay [2] is ACE (acetylcholinesterase) of sensitive mosquitoes. Particulars: 10 microliters insecticide solution (10^-2 M), 15 min at ambient temperature, optical density over 10 min.
Description: (§1) The differences in the properties of the ACE (acetylcholinesterase) between mosquitoes that have this form of resistance and sensitive mosquitoes can be detected using the following test: • Experimental protocol TESTS No.-1: Sensitive and resistant mosquitoes.
(§2) 1° the mosquito (or larva) is crushed and the crushed material is homogenized in an Eppendorf tube with a buffer solution (20 mM tris, pH 7, containing 1% of Triton X-100). After centrifugation at 10,000 g for 2 minutes, the supernatant (which contains the ACE) is collected and distributed in the wells (A) and (B) of a microplate (100 microliters in each well),
(§3) Johnson in well (B), and 10 microliters of alcohol, in well (A). The microplate is left for 15 min at ambient temperature (which is sufficient to allow the action, if any, of the insecticide),
(§4) 3°determination of the catalytic activity of the ACE (acetylcholinesterase): in each well is added 100 microliters of a solution containing acetylcholine (2.5 mM) and 0.2 mM of DTNB (dinitro-2-benzoic). The intensity of the coloration is assessed by measuring the optical density (the optical density increases based on the coloration) If the enzyme is active, the products of the hydrolysis of the acetylcholine react with the DTNB to produce a substance that features an absorption peak for the radiations of 412 nm. It is therefore possible to follow the reaction by spectrophotometry. […]
Assay [3] relates to ACE (acetylcholinesterase) of resistant mosquitoes. Particulars: 10 microliters insecticide solution (10^-2 M), 15 min at ambient temperature, optical density over 10 min.
Description: as §1, §2, §3, §4

With `CN/C(=N/CC1CCOC1)N[N+](=O)[O-]` (stereo not drawn) [Dinotefuran], the Effect on mosquitoes entry (in the assay with Anopheles gambiae; in the assay on Aedes aegypti; in the assay with Culex quinquefasciatus; in assay [1]) was “lethal effect” throughout.

In the case of `CNC(=O)Oc1ccccc1OC(C)C` [Propoxur], the entries for the “Effect of the insecticide on ACE catalytic activity (evolution of the optical density, insecticide well (B) vs control well (A))” value in assay [2] and in assay [3] were “insufficient to prevent the Propoxur insecticide (Baygon) from working” and “completely resistant”, respectively.
